Several values for one entry are separate records, joined by “and”; a condition that tells them apart may be missing. Equal entries are not always repeated. Entries after “also recorded” stand apart in the source; their conditions may differ. Structures can show the parent of a compound that is named as a salt.
Tests used:
[1] = In vitro diffusion of [^14C]-Terbinafine at the nail bed of drilled human nails, quantitative whole body autoradiography (QWBA); assay type: in vitro ADME; conditions: for diffusion of radioactivity between the holes: 2 mm and 4 mm spaced holes
Excerpt: Four frozen human cadaver fingertips with nails were used. Each fingernail contained two series of three holes, one set at 2 mm apart and the other set at 4 mm apart.
The samples were placed in a Transwell plate containing 3 milliLiters (mL) of culture medium. Three of the nails received an application of the radiolabeled test item during one hour; one received an application of a non-radiolabeled test item. A finite dose (5 microLiters (μL)) of formulation was applied on the nail surface. Incubation was conducted for 1 hour at 37° C., 5% CO2 and saturated hygrometry. At the end of the incubation, excess of formulation was removed from the nail surface.
Each sample was frozen onto a support using adapted QWBA procedures. Sections were then taken through each fingernail onto tape and were analyzed using QWBA methods to determine the diffusion of radioactivity at the nail bed level from each site of administration. A 3-dimensional graph of the concentration of radioactivity was then created to visualize the diffusion through the nail matrix.
In vitro diffusion of [^14C]-Terbinafine on nail beds was studied on drilled human hand nails. Four samples were used through the study and were drilled as follows: • On each sample: 3 holes of 0.6 mm diameter, with 2 mm distance between each hole and 3 holes of 0.6 mm diameter, with 4 mm distance between each hole • 3 samples were treated with 10% [^14C]-Terbinafine in amphoteric solution One sample was treated with placebo • Treatment duration: 1 hour • 5 μL of test item were applied on each nail • Incubation at 37° C., 5% CO2 and saturated hygrometry during 1 hour • At the end of the incubation period, the excess of test item was removed and the samples were stored at −80° C. before processing for autoradiography analysis.
(§1) Three of the nails received an application of the radiolabeled test item, whilst the other nail received an application of the unlabelled test item as follows: • Samples A, B and C (Treated samples): 5 μL of the formulation containing 10% [^14C]-Terbinafine were applied on the surface of each of the nail samples. • Sample D (Control sample): 5 μL of the formulation containing 10% Terbinafine were applied on the surface of the nail sample.
(§2) The culture plate containing the nail samples was placed in a culture incubator kept at 37° C., 5% CO2 and saturated hygrometry. The duration of the nail treatment was 1 hour.
At the end of the treatment period, the excess of the formulation remaining on the nail was wiped off using a dried cotton swab and five successive cotton swabs wetted with absolute ethanol. These cotton swabs were discarded. The nail samples were then stored at −80° C., and shipped frozen for analysis by autoradiography.
The samples (four human fingernails) were received deeply frozen on solid CO2 and immediately transferred to storage in a freezer set to maintain a temperature of −80° C. A supporting block was prepared to support each sample during sectioning. Specifically, a mould was filled with 2% carboxymethylcellulose solution and frozen in a mixture of dry ice and hexane. The frozen finger was fixed in a horizontal position on a cork disc using a cryo-matrix and the disc was then fixed to the carboxymethylcellulose block with a further cryo-matrix. The finger was embedded so that the nail was facing to the side and to ensure that each series of holes was as horizontal as possible (dependant on the alignment of the drilled holes). A further cryomatrix was added around each finger to provide additional support during sectioning. The frozen blocks were stored in a freezer set to maintain a temperature of −20° C. prior to and following sectioning.
Each nail was sectioned through until immediately adjacent to the uppermost hole in the series. Horizontal sections (approximately 30 μm thick) were then taken through each fingernail onto adhesive tape. […]

[2] = Radioactivity level in the culture medium (receiver chamber) at the end of the treatment period, liquid scintillation counting; assay type: in vitro ADME, human; conditions: for radioactivity in culture medium, mean / radioactivity in culture medium, whole receiver chamber: 1 hour treatment; for radioactivity in culture medium, single counts: 5 μL of 10% formulation on drilled nail, 1 hour, 37° C., triplicate counts, hydrochloride; for Applied dose (%) found in culture medium: applied dose 1106175 dpm
Protocol: Each nail sample was then placed on a cell culture insert. Each insert was introduced into a receiver chamber of a 6-well culture plate. The receiver chamber was filled with 3 mL HHBSS containing antibiotics (2% penicilline-streptomycine).
as §1, §2
In order to check the specificity of the incubation system (no radioactive contamination due to leakage of applied formulation through the insert), the radioactivity level was measured in the culture medium at the end of the treatment period. Each receiver chamber medium was controlled in triplicate by liquid scintillation counting as follows: 100 μL of culture medium was directly counted by liquid scintillation counting using 10 mL of HIONIC FLUOR available from Perkin Elmer. The results presented in the table below show a very low radioactivity level in culture medium of sample A and sample C. The radioactivity level only represented 1.6% of the applied dose in sample A and 0.1% of the applied dose in sample C. These radioactivity levels were considered negligible and could not compromise the results of the study.

CN(C/C=C/C#CC(C)(C)C)Cc1cccc2ccccc12 [Terbinafine]
localization of diffusion (plots of FIGS. 4, 6, 8, 10, 12, 14) ([1]; Nails A to C, 2 mm and 4 mm hole sets): particularly localized to the holes in the nail

CN(C/C=C/C#CC(C)(C)C)Cc1cccc2ccccc12 [[^14C]-Terbinafine, Terbinafine hydrochloride]
diffusion of radioactivity between the holes ([1]; Nail A, 1 hour): little diffusion of radioactivity between the holes
concentrations of radioactivity between the holes ([1]; Nail A, 4 mm spacing, 1 hour): decrease to background levels between the holes
diffusion of radioactivity between the holes ([1]; Nail B, 1 hour): little diffusion of radioactivity between the holes
concentrations of radioactivity between the holes ([1]; Nail B, 4 mm spacing, 1 hour): decrease to background levels between the holes
diffusion of radioactivity between the holes ([1]; Nail C, 1 hour, holes did not receive a full application): little diffusion of radioactivity between the holes
concentrations of radioactivity between the holes ([1]; Nail C, 4 mm spacing, 1 hour): decrease to background levels between the holes
diffusion at the nail bed level around the holes ([1]; overall conclusion): diffusion of the radiolabeled drug at the nail bed level around the holes
radioactive signal on the surface of nail plates ([1]; overall conclusion): marked radioactive signal
diffusion of radioactivity between the holes, 4 mm versus 2 mm spacing ([1]; overall conclusion, Nails A to C, hydrochloride): little diffusion of radioactivity between the 4 mm spaced holes compared to the 2 mm spaced holes; also recorded: little diffusion of radioactivity between the 4 mm spacing holes compared to the 2 mm spacing holes
concentrations of radioactivity between the holes ([1]; overall conclusion, 4 mm spaced holes, hydrochloride): decreased to background radiation levels between the holes; also recorded: decrease to background levels between the holes
radioactivity in culture medium, mean ([2]; Mean sample A): 575.7 dpm/100 μL
radioactivity in culture medium, whole receiver chamber ([2]; Mean sample A): 17270 dpm/3 mL
radioactivity in culture medium, whole receiver chamber ([2]; Mean sample B): BLQ
radioactivity in culture medium, mean ([2]; Mean sample B, LOQ 54 dpm): 46.3 dpm/100 μL
radioactivity in culture medium, whole receiver chamber ([2]; Mean sample C): 1640 dpm/3 mL
radioactivity in culture medium, mean ([2]; Mean sample C, LOQ 54 dpm): 54.7 dpm/100 μL
radioactivity in culture medium, single counts ([2]; Sample A): 494 dpm/100 μL and 621 dpm/100 μL and 612 dpm/100 μL
Applied dose (%) found in culture medium ([2]; Sample A): 1.6%
radioactivity in culture medium, single counts ([2]; Sample B): 48 dpm/100 μL and 49 dpm/100 μL and 42 dpm/100 μL
Applied dose (%) found in culture medium ([2]; Sample B): 0%
radioactivity in culture medium, single counts ([2]; Sample C): 49 dpm/100 μL and 52 dpm/100 μL and 63 dpm/100 μL
Applied dose (%) found in culture medium ([2]; Sample C): 0.1%

— patent US20150119825A1, “OPTIMIZING UNGUAL TREATMENT BY QUANTITATIVE AUTORADIOGRAPHY” (GALDERMA RESEARCH & DEVELOPMENT, priority 2012, published 2015)
